According to paper PMC6459286, “Intestinal TGR5 agonism improves hepatic steatosis and insulin sensitivity in Western diet-fed mice” (American Journal of Physiology - Gastrointestinal and Liver …, 2019):
Marks after values point to notes of the source that are not given here.

What was measured:
P-gp = assay: MDCK bidirectional permeability assay; conditions: dog; for recovery: + verapamil 100 μM
[1] = Caco-2 bidirectional permeability assay; conditions: human, Caco-2; for recovery: Caco-2, Recovery
MDCK cell monolayers = assay: MDCK bidirectional permeability assay
Caco-2 cell monolayers = assay: Caco-2 bidirectional permeability assay
[2] = test system: C57BL/6 mice fed Western diet; assay: Western diet-fed mice (NAFLD and mild insulin resistance model); type: in vivo; conditions: for 4-h fasted plasma glucose vs vehicle: days 15 and 29, agent alone
Method: Six-week-old male C57BL/6 mice (Taconic) were fed Western diet chow (Harlan Teklad TD.88137, 21.2% fat, 0.2% cholesterol, 42.0% kcal from fat) for 10 wk to model NAFLD and mild insulin resistance. […] An additional vehicle (administered orally twice daily) control group (lean) was fed standard chow (Harlan Teklad 2018) throughout the study (n = 10). […], mice were fasted for 4 h after the first dose, and blood was then collected via the tail vein for measurement of plasma glucose and insulin concentrations using a glucometer (Abbott Animal Health, Abbott Park, IL) and an MSD immunoassay (Meso Scale Discovery), respectively. On day 29, mice were fasted longer (a total of 7–8 h), were anesthetized, and had blood collected via cardiac puncture for the measurement of GLP-1 levels. Mice were then euthanized under anesthesia for the collection of liver tissue. Hepatic triglyceride and cholesterol content were determined at the University of California, Davis, CA, using the Folch method ([17]).

[3] = test system: intestinal L-cell hormones (aGLP-1, tGLP-1, tGLP-2, PYY); assay: Secretion of intestinal L-cell hormones in mice fed a standard diet; type: in vivo, C57BL/6 mice; conditions: repeat dosing 4 days, 8 h
Method: Adult male C57BL/6 mice (Taconic) fed standard chow (Harlan Teklad 2018) were dosed orally with vehicle (2% DMSO, 10% HPβCD, 10 mM PBS-HCl) or RDX8940 in separate experiments, as described below. After dosing, mice were anesthetized, and blood was collected via cardiac puncture into K3EDTA-containing tubes (Greiner Bio-one); then, the mice were euthanized. If active GLP-1 (aGLP-1) concentrations were measured, sitagliptin and aprotinin were added to the tubes before blood collection. Blood was processed to plasma for the measurement of incretins; aGLP-1, tGLP-1, and PYY concentrations were assessed using MSD immunoassays (Meso Scale Discovery), whereas total GLP-2 (tGLP-2) concentrations were quantified using a mouse GLP-2 ELISA (ALPCO, Salem, NH).
In the first experiment, mice were administered vehicle or a single dose of RDX8940 (10, 30, or 100 mg/kg), fasted, and plasma tGLP-1 concentrations were measured 8 h after dose. In a second experiment, mice were administered repeated doses of vehicle or RDX8940 30 mg/kg twice daily over 4 days. After the last dose, the mice were fasted and plasma tGLP-1 concentrations were measured 8 h later. […] After the single or last dose, the mice were fasted, and plasma concentrations of aGLP-1, tGLP-1, tGLP-2, and PYY were measured 8, 10, and 12 h later. […]

gallbladder emptying = assay: Gallbladder emptying in mice; conditions: CD-1 mice, single oral dose; RDX8940 30 and 100 mg/kg, INT-777 30 mg/kg
C57BL/6 mice fed HFCD = assay: GLP-1 and GLP-2 agonists in HFCD-fed mice; type: in vivo; conditions: for Plasma glucose: 4-h fasted; for Plasma glucose / Plasma total cholesterol / Plasma triglycerides: day 28, means ± SE; for Plasma total bilirubin levels: data not shown; for Body weight: day 33, liraglutide 200 µg/kg or teduglutide 400 µg/kg sc twice daily, means ± SE; for Plasma insulin: day 34, means ± SE; for HFCD-increased hepatic expression of genes involved in inflammation and fibrotic processes: liver RNA sequencing
Method: At 19 wk old, mice began treatment. […] Mice were weighed each week. Before treatment and on days 14 and 28 of treatment, the mice were fasted for 4 h, and blood was then collected via the tail vein and processed to plasma for measurement of alanine aminotransferase (ALT), aspartate aminotransferase (AST), alkaline phosphatase (AP), glucose, triglycerides, and total cholesterol using an ACE Axcel clinical analyzer (Alfa Wassermann, West Caldwell, NJ). After 34 days of treatment, the mice were fasted for 6–8 h and were euthanized under anesthesia. Blood was collected and processed to plasma for measurement of insulin [using an MSD immunoassay (Meso Scale Discovery)], and ALT, AST, AP, and total bilirubin levels [using an ACE Axcel clinical analyzer (Alfa Wassermann)]. The entire liver was collected and weighed, and samples of liver were weighed for measurement of triglycerides and total cholesterol levels at University of California, Davis, CA [using the Folch method ([17])]; histological assessments of steatosis, inflammation, and fibrosis were performed using hematoxylin-and-eosin stains, and Sirius red stains (Wax-it Histology Services, Vancouver, BC, Canada and Pacific Tox Path, Ellensburg, WA). Scoring of hepatic pathology was conducted according to descriptions provided by Thoolen et al. ([32]). For gene expression studies, total RNA from mouse liver tissues was isolated using a RNeasy 96 universal tissue kit (Qiagen, Hilden, Germany). A gene expression library was prepared with 100 ng of each RNA sample using a TruSeq Stranded mRNA Library NeoPrep kit (Illumina, Hayward, CA). Library samples were subsequently multiplexed and sequenced using an Illumina NextSeq 500 sequencer (San Diego, CA). Sequences of two 75-base pair ends were obtained for all samples and mapped to the mouse transcriptome, using STAR (Spliced Transcripts Alignment to a Reference) alignment with default parameters (Basespace Cloud, Illumina) and normalized using trimmed mean of M-values method in EdgeR software (Bioconductor; https://www.bioconductor.org/). Differentiation gene expression analysis was evaluated using EdgeR. R platform (https://www.r-project.org/) was used for principal component analysis and heat map analysis. Gene ontology and network correlation analysis were performed using Gorilla (http://cbl-gorilla.cs.technion.ac.il/) and WGNCA (https://horvath.genetics.ucla.edu/html/CoexpressionNetwork/Rpackages/WGCNA/).

For `COc1cc2c(c(OC)c1OC)-c1ccc(OC)c(=O)cc1[C@@H](NC(C)=O)CC2` [Colchicine], the Papp A→B at 10 µM (P-gp) was 0.85 ×10⁻⁶ cm/s, the Papp B→A at 10 µM (P-gp) was 2.31 ×10⁻⁶ cm/s and the efflux ratio at 10 µM (P-gp) was 2.72. The recovery (P-gp; A→B) was 120%, the recovery (P-gp; B→A) was 113% and the Papp A→B at 10 µM [1] was 0.23 ×10⁻⁶ cm/s. It also gave a Papp B→A at 10 µM [1] of 6.18 ×10⁻⁶ cm/s, an efflux ratio at 10 µM [1] of 27.4 and a recovery ([1]; A→B) of 69%. For the same compound, the recovery ([1]; B→A) was 80%.

In the case of `CC(CCc1ccccc1)NCC(O)c1ccc(O)c(C(N)=O)c1` (stereo not shown) [Labetalol], the Papp A→B at 10 µM [1] is reported as 19.4 ×10⁻⁶ cm/s, the Papp B→A at 10 µM [1] is reported as 31.6 ×10⁻⁶ cm/s and the recovery ([1]; A→B) is reported as 64%. The recovery ([1]; B→A) was 80%.

With `CC(C)NCC(O)COc1cccc2ccccc12` (stereo not shown) [Propranolol] the “Papp A→B” value (MDCK cell monolayers; 10 μM, without verapamil) was 14.19 cm/s × 10^−6, the “Papp B→A” value (MDCK cell monolayers; 10 μM, without verapamil) was 7.03 cm/s × 10^−6 and the “Recovery, B→A” value (MDCK cell monolayers; + verapamil 100 μM) was 98%. The “Recovery, A→B” value (Caco-2 cell monolayers; Caco-2) was 56%, the “Recovery, B→A” value (Caco-2 cell monolayers; Caco-2) was 78% and the “Papp A→B” value (Caco-2 cell monolayers; Caco-2, 10 μM) was 67.06 cm/s × 10^−6. The “Papp B→A” value (Caco-2 cell monolayers; Caco-2, 10 μM) was 19.62 cm/s × 10^−6.

In the case of `CNC(=C[N+](=O)[O-])NCCSCc1ccc(CN(C)C)o1` [Ranitidine], the Papp A→B at 10 µM [1] is reported as 0.91 ×10⁻⁶ cm/s, the Papp B→A at 10 µM [1] is reported as 3.02 ×10⁻⁶ cm/s and the efflux ratio at 10 µM [1] is reported as 3.34. The recovery ([1]; A→B) was 78% and the recovery ([1]; B→A) was 87%.

For `CC#CCn1c(N2CCC[C@@H](N)C2)nc2c1c(=O)n(Cc1nc(C)c3ccccc3n1)c(=O)n2C` [linagliptin], the “4-h fasted plasma insulin vs vehicle” value ([2]; day 29, agent alone) was “lowered”, the “4-h fasted plasma glucose vs vehicle” value [2] was “lowered” and the “aGLP-1 levels in the portal vein vs vehicle” value ([3]; monotherapy (RDX8940 30 mg/kg b.i.d.; linagliptin 10 mg/kg q.d.)) was “did not significantly affect”. The “Systemic concentrations of aGLP-1 vs vehicle” value ([3]; monotherapy) was “did not significantly increase”.

With INT-777 the “Gallbladder emptying (gallbladder weight, egg yolk vs saline)” value (gallbladder emptying) was “inhibition of gallbladder emptying”.

For liraglutide, the “Hepatic total cholesterol content vs vehicle” value (C57BL/6 mice fed HFCD) was “significantly decreased”, the “Hepatic triglyceride content vs vehicle” value (C57BL/6 mice fed HFCD) was “significantly decreased” and the “Hepatic weight vs vehicle” value (C57BL/6 mice fed HFCD) was “significantly decreased”. For the same compound, the “Plasma ALT levels vs vehicle” value (C57BL/6 mice fed HFCD) was “significantly decreased”, the “Plasma AP levels vs vehicle” value (C57BL/6 mice fed HFCD) was “significantly decreased” and the “Plasma AST levels vs vehicle” value (C57BL/6 mice fed HFCD) was “significantly decreased”. The Plasma glucose (C57BL/6 mice fed HFCD) was 185 ± 13 mg/dL, the “Plasma total bilirubin levels” value (C57BL/6 mice fed HFCD) was “Neither liraglutide nor teduglutide significantly affected” and the Plasma total cholesterol (C57BL/6 mice fed HFCD) was 230 ± 16 mg/dL. It also gave a Plasma triglycerides (C57BL/6 mice fed HFCD) of 59 ± 3 mg/dL, a Body weight (C57BL/6 mice fed HFCD) of 31.4 ± 0.8 g and a Plasma insulin (C57BL/6 mice fed HFCD) of 0.40 ± 0.11 ng/mL. The “HFCD-increased hepatic expression of genes involved in inflammation and fibrotic processes” value (C57BL/6 mice fed HFCD) was “abrogated this effect in many cases”, the Fibrosis score (C57BL/6 mice fed HFCD; median) was 2 and the Microvesicular steatosis score (C57BL/6 mice fed HFCD; median) was 0.5 ^****. For the same compound, the “4-h fasted plasma insulin vs vehicle” value ([2]; day 29, agent alone) was “lowered”, the Hepatic triglyceride levels ([2]; day 29, agent alone, RDX8940 P < 0.001) was “reduced” and the Hepatic cholesterol levels ([2]; day 29, agent alone, RDX8940 P < 0.01) was “reduced”. The Liver weight ([2]; day 29, agent alone, RDX8940 P < 0.05) was “reduced” and the “4-h fasted plasma glucose vs vehicle” value [2] was “lowered”.

With teduglutide the “Hepatic total cholesterol content vs vehicle” value (C57BL/6 mice fed HFCD) was “significantly decreased”, the “Hepatic triglyceride content vs vehicle” value (C57BL/6 mice fed HFCD) was “significantly decreased” and the “Hepatic weight vs vehicle” value (C57BL/6 mice fed HFCD) was “significantly decreased”. For the same compound, the “Plasma ALT levels vs vehicle” value (C57BL/6 mice fed HFCD) was “significantly decreased”, the “Plasma AP levels vs vehicle” value (C57BL/6 mice fed HFCD) was “significantly decreased” and the “Plasma AST levels vs vehicle” value (C57BL/6 mice fed HFCD) was “significantly decreased”. The Plasma glucose (C57BL/6 mice fed HFCD) was 205 ± 5 mg/dL, the “Plasma total bilirubin levels” value (C57BL/6 mice fed HFCD) was “Neither liraglutide nor teduglutide significantly affected” and the Plasma total cholesterol (C57BL/6 mice fed HFCD) was 279 ± 16 mg/dL. For the same compound, the Plasma triglycerides (C57BL/6 mice fed HFCD) was 84 ± 1 mg/dL, the Body weight (C57BL/6 mice fed HFCD) was 37.9 ± 0.9 g and the Plasma insulin (C57BL/6 mice fed HFCD) was 0.95 ± 0.20 ng/mL. The “HFCD-increased hepatic expression of genes involved in inflammation and fibrotic processes” value (C57BL/6 mice fed HFCD) was “abrogated this effect in many cases”, the Fibrosis score (C57BL/6 mice fed HFCD; median) was 2 and the Macrovesicular steatosis score (C57BL/6 mice fed HFCD; median) was 2.00 ^*. For the same compound, the Microvesicular steatosis score (C57BL/6 mice fed HFCD; median) was 2.0.
